According to US9550742B2, “11-OXO-10,11-dihydrodibenzo[B,F][1,4]thiazepine S-oxide derivatives and their use as dopamine D2 receptor antagonists” (The United States of America, as Represented by the …, priority 2013, dated 2017):
Where two headings read alike, the source gives them in different places.

What was measured:
5-HT1B = 5-HT1B (Homo sapiens, UniProt P28222); test: Affinity profile panel: 5-HT1B; details: inhibition of binding
[1] = target: D3 human dopamine receptors (Homo sapiens, UniProt P35462); test: D3 binding assay ([^3H]methylspiperone, HEK293 membranes)
Procedure: Cells were cultured in Dulbecco's modified Eagle's Medium containing 10% FBS, 1,000 units/mL Penicillin, 1,000 mg/mL Streptomycin, 100 mM Sodium Pyruvate, 1 μg/mL Gentamicin, and […] G418. All cells were maintained at 37° C. in 5% CO2 and 90% humidity. For radioligand binding assays, cells were removed mechanically using calcium and magnesium-free Earle's Balanced Salt Solution (EBSS(−)). Intact cells were collected by centrifugation and then lysed with 5 mM Tris-HCl and 5 mM MgCl2 at pH 7.4 in a glass homogenizer. […] Membrane preparations were incubated for 90 min at room temperature with various concentrations of radioligand in a reaction volume of 250 μL EBSS containing 200 mM sodium metabisulfite. […] Bound ligand was separated from unbound by filtration through GF/C filters using a PerkinElmer cell harvester with ice cold EBSS (4 washes) and quantified on a Top-count (PerkinElmer) after addition of scintillation solution. […] In order to determine the affinity of a given compound for a receptor type, competition-binding assays were performed. […] Reactions were incubated, terminated, and quantified as indicated above.

D2 receptor = target: T1, D2 receptor (Rattus norvegicus, UniProt P61169); test: Sumanirole-induced hypothermia; format: in vivo; details: rats, subcutaneously
T1 construct: from tissue; host or cells: live rats (whole animal)
Description: These experiments test the ability of a compound of Formula I, ML321, to affect physiological or behavioral responses in rats that are mediated by D2 or D3 receptors. Sumanirole, an agonist of the D2 receptor, produces hypothermia in rats when administered subcutaneously. This response is known to be mediated by the D2 receptor and not the D3 receptor (Collins et al., Psychopharmacology (Berl). 2007, 193(2):159-70).
The sumanirole-induced hypothermia and pramipexole-induced yawning experiments show ML321 can act selectively to block the D2 receptor without blocking the D3 receptor when administered to living animals. Thus, the D2 selectivity identified using cellular assays can also be seen in living animals.

5-HT2C = 5-HT2C (Homo sapiens, UniProt P28335); test: Affinity profile panel: 5-HT2C; details: inhibition of binding
Description: Antipsychotic drugs (depending on the specific drug) typically interact with a range of serotonergic, adrenergic, histaminergic, and muscarinic receptors.

5-HT1E = 5-HT1E (Homo sapiens, UniProt P28566); test: Affinity profile panel: 5-HT1E; details: inhibition of binding
Alpha2C = Alpha2C (Homo sapiens, UniProt P18825); test: Affinity profile panel: Alpha2C; details: inhibition of binding
[2] = target: D2L human dopamine receptors (Homo sapiens, UniProt P14416); test: D2 binding assay ([^3H]methylspiperone, HEK membranes)
Procedure: Compounds were tested for differences in affinity between three dopamine receptor subtypes using radio-labeled ligand binding assays. The first assay determined the Ki value of the compounds for the D2 DAR subtype using stable HEK cell lines expressing the D2L human dopamine receptors (Codex Biosciences, Gaithersburg, Md.). Cells were cultured in Dulbecco's modified Eagle's Medium containing 10% FBS, 1,000 units/mL Penicillin, 1,000 mg/mL Streptomycin, 100 mM Sodium Pyruvate, 1 μg/mL Gentamicin, and […] G418. All cells were maintained at 37° C. in 5% CO2 and 90% humidity. For radioligand binding assays, cells were removed mechanically using calcium and magnesium-free Earle's Balanced Salt Solution (EBSS(−)). Intact cells were collected by centrifugation and then lysed with 5 mM Tris-HCl and 5 mM MgCl2 at pH 7.4 in a glass homogenizer. Homogenates were centrifuged at 20,000×g for 30 minutes. The membranes were re-suspended in EBSS (pH 7.4) and protein concentration was determined using a Bradford assay according to the manufacturer's recommendations (Bio-Rad). Membranes were diluted to 24 mg/mL. […] Membrane preparations were incubated for 90 min at room temperature with various concentrations of radioligand in a reaction volume of 250 μL EBSS containing 200 mM sodium metabisulfite. Non-specific binding was determined in the presence of 4 μM (+)-butaclamol. Bound ligand was separated from unbound by filtration through GF/C filters using a PerkinElmer cell harvester with ice cold EBSS (4 washes) and quantified on a Top-count (PerkinElmer) after addition of scintillation solution. […] In order to determine the affinity of a given compound for a receptor type, competition-binding assays were performed. […] Reactions were incubated, terminated, and quantified as indicated above.

M5 = M5 (Homo sapiens, UniProt P08912); test: Affinity profile panel: M5; details: inhibition of binding
D2 DAR = target: T2, D2 DAR (Homo sapiens, UniProt P14416); test: D2 Ca^2+ screen assay (calcium accumulation, HEK293 T-REx with Gqi5); format: cell-based
T2 construct: expressed in transfected cells; host or cells: HEK293 T-REx, Tet-inducible, with chimeric G-protein Gqi5
Procedure: The resting concentration of calcium ions (Ca^2+) in the cells' cytoplasm is normally maintained in the range of 10-100 nM. To maintain this low concentration, Ca^2+ is actively pumped from the cytosol to the extracellular space and into the endoplasmic reticulum (ER), and sometimes into the mitochondria. Signaling occurs when the cell is stimulated to release Ca^2+ from intracellular stores. The most common signaling pathway that increases cytoplasmic calcium concentration is the phospholipase C (PLC) pathway. […] IP3 diffuses to the ER, binds to its receptor (IP3 receptor), which is a Ca^2+ channel and, thus, releases Ca^2+ from the ER to the cytosol. To measure this cytosolic Ca^2+ accumulation, we used the Screen Quest™ Fluo-8 Calcium Assay Kit (AAT Bioquest, Sunnyvale, Calif.). Acetoxymethyl (AM) esters bound to Fluo-8™ dye are non-polar molecules that easily cross live cell membranes transporting the dye inside the cell, and are then rapidly hydrolyzed by cellular esterases inside live cells. As Fluo-8™ is freed from AM esters, it binds to Ca^2+ and emits a fluorescent signal at 514 nm that escalates with increasing cytosolic Ca^2±. To measure this calcium flux signal, we used the Functional Drug Screening System (FDSS) (Hamamatsu, Japan), a high throughput screening device that allows optical detection of signal transmissions within living cells in a time-resolving fashion. […] Quest Fluo-8™ calcium reagent was freshly prepared prior to adding to the cells (lyophilized Fluo-8™ dye provided with the kit was re-suspended in 200 μL DMSO as a 500× stock and stored at −20° C.). 2 μL/well of Quest Fluo-8™ calcium dye diluted in HBSS +10 mM HEPES buffer (for every 10 mL buffer, 1 mL of 10× quencher provided in the kit and 20 μL of 500×DMSO stock dye were added) was added to cells with a Multi-Drop Combi (ThermoScientific) and incubated for 45-90 min in the dark at ambient temperature. Then, the plates were introduced into the FDSS where they were pinned with 23 nL of test compound or dopamine controls and were read by FDSS in non-stimulated mode for 180 sec for detection of agonists. […]

Sequence of D2L human dopamine receptors (P14416 whole entry): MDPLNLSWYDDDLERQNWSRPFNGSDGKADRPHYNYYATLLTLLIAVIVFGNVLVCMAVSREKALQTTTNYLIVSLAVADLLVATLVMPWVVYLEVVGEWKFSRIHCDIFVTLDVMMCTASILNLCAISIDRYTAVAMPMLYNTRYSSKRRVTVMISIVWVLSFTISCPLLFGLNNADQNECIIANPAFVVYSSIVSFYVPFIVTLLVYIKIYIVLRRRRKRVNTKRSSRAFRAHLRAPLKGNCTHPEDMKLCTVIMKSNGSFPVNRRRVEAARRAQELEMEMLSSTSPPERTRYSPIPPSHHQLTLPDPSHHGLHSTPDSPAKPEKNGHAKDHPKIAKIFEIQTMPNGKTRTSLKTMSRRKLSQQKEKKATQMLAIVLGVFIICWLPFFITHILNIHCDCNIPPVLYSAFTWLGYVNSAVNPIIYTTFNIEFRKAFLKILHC
T2 sequence (P14416 whole entry): as above
T1 sequence (P61169 whole entry): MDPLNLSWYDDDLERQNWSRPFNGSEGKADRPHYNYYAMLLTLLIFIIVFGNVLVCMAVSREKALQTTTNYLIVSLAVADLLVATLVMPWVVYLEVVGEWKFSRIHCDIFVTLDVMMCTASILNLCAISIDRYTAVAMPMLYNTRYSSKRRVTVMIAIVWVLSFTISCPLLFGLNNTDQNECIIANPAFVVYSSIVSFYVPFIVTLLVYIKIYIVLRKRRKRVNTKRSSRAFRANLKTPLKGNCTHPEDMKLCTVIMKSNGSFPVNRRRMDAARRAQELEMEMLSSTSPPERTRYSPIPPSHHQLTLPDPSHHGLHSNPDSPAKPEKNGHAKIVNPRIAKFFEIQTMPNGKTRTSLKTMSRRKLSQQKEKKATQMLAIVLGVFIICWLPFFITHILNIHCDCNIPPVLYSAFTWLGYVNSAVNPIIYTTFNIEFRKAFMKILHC
Sequence of M5 (P08912 whole entry): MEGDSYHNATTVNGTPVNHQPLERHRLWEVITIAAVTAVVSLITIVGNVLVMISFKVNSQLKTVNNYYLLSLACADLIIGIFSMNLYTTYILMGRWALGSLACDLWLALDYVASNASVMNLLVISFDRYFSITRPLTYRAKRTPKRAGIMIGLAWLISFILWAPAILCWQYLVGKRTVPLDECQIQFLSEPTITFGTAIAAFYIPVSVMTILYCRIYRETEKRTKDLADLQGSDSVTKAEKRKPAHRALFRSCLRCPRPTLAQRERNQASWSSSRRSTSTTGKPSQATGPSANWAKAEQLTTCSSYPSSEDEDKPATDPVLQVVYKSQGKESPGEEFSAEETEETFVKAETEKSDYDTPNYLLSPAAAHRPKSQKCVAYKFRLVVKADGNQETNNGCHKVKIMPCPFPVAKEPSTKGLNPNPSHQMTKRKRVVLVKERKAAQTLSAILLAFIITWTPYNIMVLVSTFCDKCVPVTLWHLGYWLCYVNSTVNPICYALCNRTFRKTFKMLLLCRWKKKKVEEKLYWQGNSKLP
Sequence of 5-HT2C (P28335 33-458, species assumed): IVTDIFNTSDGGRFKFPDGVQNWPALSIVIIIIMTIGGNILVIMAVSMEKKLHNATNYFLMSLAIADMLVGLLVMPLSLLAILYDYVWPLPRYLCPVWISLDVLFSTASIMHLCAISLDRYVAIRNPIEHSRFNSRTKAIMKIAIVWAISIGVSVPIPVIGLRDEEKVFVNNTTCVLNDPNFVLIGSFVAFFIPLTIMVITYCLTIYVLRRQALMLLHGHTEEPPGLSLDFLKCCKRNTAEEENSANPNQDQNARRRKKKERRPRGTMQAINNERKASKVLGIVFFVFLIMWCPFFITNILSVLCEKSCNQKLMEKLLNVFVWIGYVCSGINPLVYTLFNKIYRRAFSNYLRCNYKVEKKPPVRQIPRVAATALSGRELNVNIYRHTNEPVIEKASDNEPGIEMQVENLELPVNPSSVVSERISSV
Sequence of Alpha2C (P18825 whole entry): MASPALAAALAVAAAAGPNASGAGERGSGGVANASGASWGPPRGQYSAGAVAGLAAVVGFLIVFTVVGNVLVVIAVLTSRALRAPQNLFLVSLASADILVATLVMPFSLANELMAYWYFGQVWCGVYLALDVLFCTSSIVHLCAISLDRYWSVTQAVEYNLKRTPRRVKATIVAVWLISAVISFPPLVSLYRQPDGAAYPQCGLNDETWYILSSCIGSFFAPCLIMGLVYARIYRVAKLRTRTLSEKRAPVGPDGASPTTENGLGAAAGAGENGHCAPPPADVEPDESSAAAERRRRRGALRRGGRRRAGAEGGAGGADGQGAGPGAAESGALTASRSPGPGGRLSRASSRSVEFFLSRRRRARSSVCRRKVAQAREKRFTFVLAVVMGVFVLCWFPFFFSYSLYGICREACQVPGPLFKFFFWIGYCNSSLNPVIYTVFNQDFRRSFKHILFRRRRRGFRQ
Sequence of D3 human dopamine receptors (P35462 whole entry): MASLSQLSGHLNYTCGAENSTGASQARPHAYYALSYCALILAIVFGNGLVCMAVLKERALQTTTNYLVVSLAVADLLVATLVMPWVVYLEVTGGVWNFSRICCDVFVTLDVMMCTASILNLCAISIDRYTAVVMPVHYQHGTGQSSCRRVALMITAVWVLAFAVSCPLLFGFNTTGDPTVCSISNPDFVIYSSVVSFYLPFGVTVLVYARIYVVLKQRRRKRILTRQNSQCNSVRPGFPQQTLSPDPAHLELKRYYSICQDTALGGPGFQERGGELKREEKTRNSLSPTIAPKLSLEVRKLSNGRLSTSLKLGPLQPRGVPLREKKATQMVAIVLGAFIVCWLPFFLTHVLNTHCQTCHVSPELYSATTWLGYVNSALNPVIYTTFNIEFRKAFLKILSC
Sequence of 5-HT1B (P28222 whole entry, species assumed): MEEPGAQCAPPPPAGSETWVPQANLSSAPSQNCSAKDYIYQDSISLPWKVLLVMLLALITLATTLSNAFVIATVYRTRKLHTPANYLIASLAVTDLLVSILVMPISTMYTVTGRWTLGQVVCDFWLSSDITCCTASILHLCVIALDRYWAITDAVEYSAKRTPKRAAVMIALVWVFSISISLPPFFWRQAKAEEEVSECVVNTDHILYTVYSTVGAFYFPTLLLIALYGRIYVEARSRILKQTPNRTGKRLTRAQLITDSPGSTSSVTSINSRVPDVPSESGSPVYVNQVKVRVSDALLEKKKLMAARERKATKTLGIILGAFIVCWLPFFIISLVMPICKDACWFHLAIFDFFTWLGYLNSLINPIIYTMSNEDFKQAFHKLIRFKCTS
Sequence of 5-HT1E (P28566 whole entry, species assumed): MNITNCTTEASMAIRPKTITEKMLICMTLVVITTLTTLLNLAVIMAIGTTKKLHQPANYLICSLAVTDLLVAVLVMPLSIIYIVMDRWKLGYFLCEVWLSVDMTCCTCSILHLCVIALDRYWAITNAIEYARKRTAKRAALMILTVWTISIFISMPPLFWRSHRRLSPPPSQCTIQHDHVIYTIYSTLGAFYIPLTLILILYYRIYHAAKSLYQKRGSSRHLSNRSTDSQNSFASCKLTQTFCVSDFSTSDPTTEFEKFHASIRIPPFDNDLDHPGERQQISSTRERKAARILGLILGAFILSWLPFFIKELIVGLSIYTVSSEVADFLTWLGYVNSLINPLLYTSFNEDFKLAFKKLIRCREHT

Q: Which “Inhibition (%) 5-HT1B” value (5-HT1B) does the source give for `CN1C(=O)c2ccccc2[S@+]([O-])c2ccc(C(=O)NCCc3cccs3)cc21` [Compound 55, 10-Methyl-11-oxo-N-(2-(thiophen-2-yl)ethyl)-10,11-dihydrodibenzo[b,f][1,4]thiazepine-8-carboxamide 5-(S)-oxide] here?
A: The value was 24.0%.

Q: And the Ki [1]?
A: The Ki was 2900 nM.

Q: What about the “Block of sumanirole-induced hypothermia response” value (D2 receptor; 10 mg/kg) of the same compound?
A: Its value is “completely blocked”.

Q: What about the “Block of sumanirole-induced hypothermia response” value (D2 receptor; 3.2 and 10 mg/kg) of the same compound?
A: The value was “significantly and dose-dependently block the sumanirole-induced hypothermia response”.

Q: What about the “Inhibition (%) 5-HT2C” value (5-HT2C) of the same compound?
A: The value was 64.5%.

Q: And the “Inhibition (%) 5-HT1E” value (5-HT1E)?
A: The value was 9.9%.

Q: What about the “Inhibition (%) Alpha2C” value (Alpha2C) of the same compound?
A: The value was 20.9%.

Q: And the Ki [2]?
A: Its Ki is 100 nM.

Q: And the “D3/D2 binding Ki ratio” value ([2]; ratio of D3 (Example 5) to D2 (Example 3) binding assay)?
A: The value was 29.0.

Q: What about the “Inhibition (%) M5” value (M5) of the same compound?
A: The value was −6.5%.

Q: And the AC50 (D2 DAR; dopamine D2 calcium release assay of Example 1, read-out: Ca^2+ AC50)?
A: Its AC50 is under 1000 nM.

Q: What about the AC50 (D2 DAR; dose response curve, read-out: D2 Ca^2+ assay AC50) of the same compound?
A: Its AC50 is 70 nM.
